Consider 3 molecules from ChEMBL document CHEMBL1697781, “Assessment of the health effects of chemicals in humans: II. Construction of an adverse effects database for QSAR modeling” (Curr Drug Discov Technol, 2004).

Holding throughout (conditions): human
Data set [1] relates to Hepatotoxicity. The experiment in a line: FDA HLAED, liver enzyme composite activity.
In data set [2] the test system is Hepatotoxicity. The experiment in a line: FDA HLAED, serum glutamic pyruvic transaminase (SGPT) increase.
Data set [3] deals with Hepatotoxicity. Nature of the data set: FDA HLAED, serum glutamic oxaloacetic transaminase (SGOT) increase.
The subject of data set [4] is Hepatotoxicity. Nature of the data set: FDA HLAED, alkaline phosphatase increase.
The test system of data set [5] is Hepatotoxicity. The experiment in a line: FDA HLAED, gamma-glutamyl transferase (GGT) increase.
Data set [6] has as its system Hepatotoxicity. The experiment in a line: FDA HLAED, lactate dehydrogenase (LDH) increase.
For GGT Increase - Index Value in this document: reference of the scale not given here.
For LDH Increase - Index Value in this document: reference of the scale not given here.

As to `CCCCc1oc2ccccc2c1C(=O)c1cc(I)c(OCCN(CC)CC)c(I)c1` [AMIODARONE], in data set [1] (Liver), the “Composite Activity - Active” value is given as 0, the “Composite Activity - Marginal” value is 0 and the “Composite Activity - Score” value was “Inactive”. In addition, in data set [2], the “SGPT Increase - Activity Score” value is on record as “Inactive”, the “SGPT Increase - Index Value” was 0 and the “SGPT Increase - Number of Reports” value is less than 4. Moreover, in data set [3], the “SGOT Increase - Activity Score” value is listed as “Inactive”, the “SGOT Increase - Index Value” turned out to be 0 and the “SGOT Increase - Number of Reports” value is listed as less than 4. For the same molecule, in data set [4], the “Alkaline Phosphatase Increase - Activity Score” value is on record as “Inactive”, the “Alkaline Phosphatase Increase - Index Value” was found to be 0 and the “Alkaline Phosphatase Increase - Number of Reports” value is listed as less than 4. In data set [5], the “GGT Increase - Activity Score” value is listed as “Inactive”, the “GGT Increase - Index Value” was 0 and the “GGT Increase - Number of Reports” value is less than 4. In data set [6], the “LDH Increase - Activity Score” value is reported as “Inactive”, the “LDH Increase - Index Value” came to 0 and the “LDH Increase - Number of Reports” value is less than 4.
In the case of `CC(C)c1ccc2oc3nc(N)c(C(=O)O)cc3c(=O)c2c1` [AMLEXANOX], in data set [1], the “Composite Activity - Active” value was 0, the “Composite Activity - Marginal” value worked out at 0 and the “Composite Activity - Score” value was “Inactive”. In data set [2], the “SGPT Increase - Activity Score” value was “Inactive”, the “SGPT Increase - Index Value” is reported as 0 and the “SGPT Increase - Number of Reports” value was less than 4. Also, in data set [3], the “SGOT Increase - Activity Score” value is “Inactive”, the “SGOT Increase - Index Value” stood at 0 and the “SGOT Increase - Number of Reports” value is recorded as less than 4. Moreover, in data set [4], the “Alkaline Phosphatase Increase - Activity Score” value is “Inactive”, the “Alkaline Phosphatase Increase - Index Value” was 0 and the “Alkaline Phosphatase Increase - Number of Reports” value is listed as less than 4. In data set [5], the “GGT Increase - Activity Score” value is on record as “Inactive”, the “GGT Increase - Index Value” is 0 and the “GGT Increase - Number of Reports” value is recorded as less than 4. In data set [6], the “LDH Increase - Activity Score” value is listed as “Inactive”, the “LDH Increase - Index Value” is on record as 0 and the “LDH Increase - Number of Reports” value was less than 4.
For `CCOC(=O)C1=C(COCCN)NC(C)=C(C(=O)OC)C1c1ccccc1Cl` (centres undefined) [AMLODIPINE], in data set [1], the “Composite Activity - Active” value came out at 0, the “Composite Activity - Marginal” value came to 0 and the “Composite Activity - Score” value is on record as “Inactive”. Further, in data set [2], the “SGPT Increase - Activity Score” value is reported as “Inactive”, the “SGPT Increase - Index Value” turned out to be 1.2 and the “SGPT Increase - Number of Reports” value is “>= 4”. Besides, in data set [3], the “SGOT Increase - Activity Score” value was “Inactive”, the “SGOT Increase - Index Value” came to 1.3 and the “SGOT Increase - Number of Reports” value is given as “>= 4”. Besides, in data set [4], the “Alkaline Phosphatase Increase - Activity Score” value is “Inactive”, the “Alkaline Phosphatase Increase - Index Value” worked out at 1 and the “Alkaline Phosphatase Increase - Number of Reports” value is on record as “>= 4”. For the same molecule, in data set [5], the “GGT Increase - Activity Score” value was “Inactive”, the “GGT Increase - Index Value” is on record as 0.8 and the “GGT Increase - Number of Reports” value is on record as “>= 4”. In addition, in data set [6], the “LDH Increase - Activity Score” value is listed as “Inactive”, the “LDH Increase - Index Value” is listed as 0.7 and the “LDH Increase - Number of Reports” value is given as “>= 4”.
